Test system: Tétranychus urticae
Assay: Adulticide test on Tétranychus urticae (treated bean plants)
Type: in vivo
Conditions: bean plants sprayed at different doses, infested with 25 females per leaf, 22-23°C, 60-65% relative humidity; live and dead mites counted 24 h and 48 h after treatment
Source text: On utilise des plants de haricots comportant deux feuilles qui sont traitées au pistolet Fisher à différentes doses des produits à tester. Après séchage, ces plants sont infestés à raison de 25 femelles de Tétranychus urticae par feuille et maintenus à 22-23◊C, 60 - 65% d'humidité relative. Les dénombrements des acariens vivants et morts sont effectués 24 heures et 48 heures après traitement.

## CC(C)(C)OC(=O)/C(F)=C\[C@H]1[C@@H](C(=O)OC2Cc3cccc(-c4ccccc4)c3C2)C1(C)C (stereo partly drawn) [Exemple 4, /1R-/1α,3α (E)/ 3-(3-terbutoxy-3-oxo-2-fluoro-1-propényl) -2,2-diméthyl cyclopropane carboxylatede 2,3-dihydro-4-phényl-1H-inden-2-yle]
  CL 50: 173 mg/hl
